Results on one compound are retold here after patent publication US8815891B2, “Tricyclic derivative or pharmaceutically acceptable salts thereof, preparation method thereof, and pharmaceutical composition containing the same” (Je Il Pharmaceutical Co., Ltd., priority 2008, dated 2014).

Assay [1] has as its target PARP-1 enzyme (Homo sapiens (Human), UniProt P09874). The experiment in a line: Poly(ADP-ribose)polymerase [PARP-1] enzyme inhibitory activity (Trevigen PARP Assay kit). The format is biochemical. Particulars: read-out: PARP-1 Inhibitory activity IC50. In short, it runs like this: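 On histone-coated plates, PARP-1 (0.12 unit/well) reacted with compound for 30 min at 25 °C in a 2× cocktail of 1.95 mM NAD+, 50 μM biotinylated NAD+ and activated DNA (Tris pH 8.0, 25 mM MgCl2). Biotin-ribosylated histone was detected with streptavidin-HRP and TACS-Sapphire substrate, stopped with HCl and read at 450 nm.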

Assay [2] has as its system Rat Middle Cerebral Artery Occlusion (MCAO) Animal Model. The experiment in a line: Neuroprotective effect in rat middle cerebral artery occlusion (MCAO) animal model. The format is in vivo. The note with it: for Infarct volume: 22 hours after reperfusion; for Percent of infraction decrease: vs control group. On the procedure: Animal test was performed on male Sprague Dawley rats (KOATECH Co., Ltd., South Korea) weighing 280 to 340 g. Animals were given food and water ad libitum and adapted to the test environment for 1 week. The modified intraluminal filament technique as described by Zea Longa et al. (Stroke, 20:84-91, 1989) was used to induce MCAO. The rats were developed ischemic regions due to insufficient blood flow in striatum and temporal lobe which are the domain regions of the middle cerebral artery and depletion of oxygen and energy sources after the middle cerebral artery occlusion. In order to occlude the middle cerebral artery with the intraluminal suture method, 4-0 nylon suture was cut to 22 mm, and 2 mm of the terminal end was rounded by flame heating. In order to increase the effect of damage preventing and occlusion in the lumen, a probe was coated with silicon to 0.3 mm.
Rats were anaesthetized with isoflurane (3% for induction and 2% for surgical procedure) in a mixture of oxygen/nitrous oxide (30%/70%). The left common carotid artery (CCA) was exposed through a ventral midline incision in the neck. The external carotid artery (ECA), internal carotid artery (ICA), and CCA were carefully isolated and maintained in a Y-shape by use of silk suture. The upper external carotid artery was blocked by a thread, and a minute hole is bored 1 mm below the spot at which the external and internal carotid arteries bifurcate from the common carotid. The probe was inserted in the minute hole and fixed by a thread. The neck wound was closed and each animal was allowed to recover from anesthesia. 120 min after MCA occlusion, each animal was re-anesthetized, and the neck wound was re-opened to remove the thread. Along with the reperfusion, the compound of Example 74 was injected intravenously. 22 hours after the reperfusion, the animals were sacrificed by CO2 suffocation, decapitated, and 2 mm thick six coronal sections were obtained using rodent brain matrix. The coronal slices were incubated in phosphate-buffered saline (PBS) containing 2% 2,3,5-triphenyl tetrazolium chloride (TTC, Sigma) at 37° C. for 30 min, and then fixed in 4% phosphate-buffered formalin. After fixation these brain sections were scanned using a flat-bed scanner. The infarct area was determined by image J (NIH image version 1.59), and the total infarct volume was calculated by: Infarct volume (mm^3)=infarct […]×thickness of slice (2 mm) [Mathematical formula 3]
The statistical analysis of the decrease of infarct volume was performed by Mann Whitney test (*:p<0.05, **:p<0.01).

The test system of assay [3] is SK-OV-3 Cell line. In words: Cell growth inhibition of cancer cell lines (SRB assay), SK-OV-3. Format: cell-based. Here is the method:
The tests on cell growth inhibitory activity were performed with respect to A549 (US, ATCC), SK-OV-3 (Korea Research Institute of Chemical Technology; KRICT), HT-29 (US, ATCC), MCF-7 cell (US, ATCC), using Sulforhodamin-B <SRB> Assay (1989, US National Cancer Institute (NCI)) which was developed to measure the in vitro anti-cancer activity of the drug. […] The samples of the compounds of the Examples according to the present invention were used for the tests, and before the tests, the samples were dissolved in dimethylsulfoxide and diluted with the culture medium (RPMI 1640) to be used. The final concentration of the sample was varied in the range of 0.3˜100 μM. After the culture medium was removed from the 96 well plates, the diluted sample solution was added by 100 μl, and cultured in 37° C., 5% CO2 culture medium for 72 hours. The time zero (Tz) plates were collected at the time point of adding the sample. Upon completing the culture, the medium was removed from each well along with Tz plate, then cold 10% trichloroacetic acid (TCA) was added by 100 μl per well. The wells were left at 4° C. for 1 hour, so that the cells were fixed into the bottom of the plates. After the cells were fixed, the plates were rinsed with water five to six times to remove the remaining trichloroacetic acid solution, and moisture was completely dried at room temperature. The cells were dyed for 30 minutes by adding the dye solution in which 0.4% sulforhodamine-B was dissolved in 1% acetic acid solution, by 100 μl per dried wells. The above was rinsed again with 1% acetic acid solution five to six times to ensure that sulforhodamine-B which had not attached to the cells was removed. The plates were again dried at room temperature. 100 μl of 10 mM tris-buffer was then added to dissolve the dye, and the optical density (OD) at 520 nm was measured with the microplate reader. GI50 of the sample regarding cancer cell was calculated as explained below. Time zero (Tz), control value (C) and test value (T) were obtained, in which Tz corresponds to OD value of time at which the sample is applied and culture is started, C corresponds to OD value of the well which is cultured without treatment with the sample, and T corresponds to OD value of the well which is treated with the sample and then cultured. The degree of cell growth inhibition of the sample was measured using: If […] [Mathematical Formula 1]
Further, the ability of Examples 2, 42, 49, 52, 72, 74, 101 to increase growth inhibition effect of temozolomide and SN-38 at 2 μM was determined.
On the technique in general: Sulforhodamine B stains cellular protein and so reports cell mass.

Structures can show the parent of a compound that is named as a salt.

Chain of PARP-1 enzyme (P09874 whole entry): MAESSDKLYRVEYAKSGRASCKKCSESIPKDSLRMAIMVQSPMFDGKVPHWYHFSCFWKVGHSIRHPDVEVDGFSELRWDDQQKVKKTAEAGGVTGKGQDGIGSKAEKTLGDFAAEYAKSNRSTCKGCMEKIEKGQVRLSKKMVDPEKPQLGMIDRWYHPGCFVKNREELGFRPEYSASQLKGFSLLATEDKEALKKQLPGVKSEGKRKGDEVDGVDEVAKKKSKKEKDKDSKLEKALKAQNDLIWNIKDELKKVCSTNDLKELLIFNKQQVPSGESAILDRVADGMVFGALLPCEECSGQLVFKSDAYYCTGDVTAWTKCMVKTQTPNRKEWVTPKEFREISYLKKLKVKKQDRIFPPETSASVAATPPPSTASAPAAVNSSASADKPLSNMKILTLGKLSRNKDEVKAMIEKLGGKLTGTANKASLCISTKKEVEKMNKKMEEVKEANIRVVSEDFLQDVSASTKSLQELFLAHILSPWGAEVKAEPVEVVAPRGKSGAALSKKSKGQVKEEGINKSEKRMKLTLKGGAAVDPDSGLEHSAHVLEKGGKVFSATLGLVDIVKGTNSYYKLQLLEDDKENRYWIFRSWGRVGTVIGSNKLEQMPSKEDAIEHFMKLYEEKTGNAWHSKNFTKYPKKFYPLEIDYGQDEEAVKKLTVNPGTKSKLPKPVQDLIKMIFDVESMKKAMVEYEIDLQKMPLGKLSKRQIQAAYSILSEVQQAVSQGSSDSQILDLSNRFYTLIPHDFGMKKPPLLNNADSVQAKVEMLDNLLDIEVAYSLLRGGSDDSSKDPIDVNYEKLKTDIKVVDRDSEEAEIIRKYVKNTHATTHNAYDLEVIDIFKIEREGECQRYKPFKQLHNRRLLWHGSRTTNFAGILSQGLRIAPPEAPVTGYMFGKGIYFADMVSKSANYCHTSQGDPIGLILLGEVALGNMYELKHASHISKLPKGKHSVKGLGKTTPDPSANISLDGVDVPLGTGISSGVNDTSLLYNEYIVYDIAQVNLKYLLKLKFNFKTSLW

What is called IC50 is the point on the concentration scale where inhibition reaches its midpoint. In general, GI50 refers to the concentration at which growth is held to half of that of the control. `COc1cc(CN2CCOCC2)cc2[nH]c(=O)c3c(c12)NCCC3` [Example 74, 10-Methoxy-8-(morpholinomethyl)-1,2,3,4-tetrahydrobenzo[h][1,6]naphthyridine-5(6H)-one dihydrochloride]: the IC50 in assay [1] was 0.23 µM. The results for the Infarct volume in assay [2] (10 mg/kg intravenously at reperfusion), in assay [2] (20 mg/kg intravenously at reperfusion) and in assay [2] (30 mg/kg intravenously at reperfusion) were 252.38 mm^3, 124.68 mm^3 and 162.88 mm^3, respectively. Moreover, the “Percent of infraction decrease” value in assay [2] (10 mg/kg intravenously) is recorded as 4%; in assay [2] (20 mg/kg intravenously), 53%; in assay [2] (30 mg/kg intravenously) it was 38%. Besides, the “SN-38 PF50” value in assay [3] (2 μM compound) is 2.2. In addition, the “Temozolomide PF50” value in assay [3] (2 μM compound) was above 5.0. In assay [3] (Homo sapiens, 72 hours), this compound displayed a 50% growth inhibitory concentration (GI50) of 52 µM.
